A short description of series [1]: Metabolic stability in pooled human liver microsomes. Details: CLint scaled: dose or concentration left out as unconfirmed. Conditions: for half-life at 0.4 mM / CLint scaled: human. On the procedure:
(§1) (ii) Metabolic stability in liver microsomes. The metabolic stability assay was performed in duplicate using 96-deepwell plates. Each compound (0.4 mM) was incubated individually in mouse, rat, and pooled human liver microsomes (0.4 mg/ml) at 37°C in the presence and absence of the cofactor NADPH (1 mM). An aliquot was taken at 0, 5, 10, 30, and 60 min, and the reaction was quenched by adding 300 μl of ice-cold acetonitrile containing the internal standard carbamazepine (0.0236 μg/ml) ([88]). The test compounds in the supernatant were analyzed by means of LC-MS/MS as described in “Sample analysis” below. The normalized data for each sample were used to calculate the in vitro half-life, intrinsic clearance rate, and hepatic extraction ratio from the results of this assay using the following equations ([88]).Equation 1. Normalized area. (1) Normalized area=(Peak area of sample at time point/Peak area of internal standard) Equation 2. Percent parent remaining. (2) % Parent=Normalized peak area of sample at time point/Normalized peak area of sample at t=0×100 Equation 3. Calculated t1/2. (3) t1/2=−0.693/λ where λ is the slope of the ln (% parent remaining) versus time curve of the compound.Equation 4. CLint. (4) CLint=[0.693/t1/2(min)]×[Volume of incubation (μl)/Microsomal protein (μg)] Equation 5. Hepatic extraction ratio. (5) EH=fu×CLint/QH + fu×CLint
(§2) Sample extraction. […] The organic layer was then transferred and evaporated under a gentle stream of nitrogen at room temperature for 30 min. The dried samples were reconstituted in mobile phase, and a 5 μl sample was injected for LC-MS/MS analysis. The only exception was the arylurea 10, for which no liquid-liquid extraction was conducted; instead, the 200 μl acetonitrile solution was evaporated under a gentle stream of nitrogen at room temperature. The dried sample was reconstituted in the mobile phase, and a 5 μl sample was injected for LC-MS/MS analysis. The plasma samples for each compound from the in vivo studies were extracted by mixing 350 μl ethyl acetate with 15 μl of plasma sample and 35 μl of universal buffer containing internal standard at pH 8. The samples were vortexed for 1 min and centrifuged for 5 min, and the organic layer was then transferred and evaporated under a gentle stream of nitrogen at room temperature for 30 min. The dried samples were each reconstituted in the mobile phase, and a 5 μl sample was injected for LC-MS/MS analysis.
(§3) LC-MS/MS analysis. For all the artemisinins except the arylurea 10, gradient chromatography was performed on a Phenomenex (Torrance, CA, USA) Luna PFP(2) analytical column (100 Å, 5 μm, 2 by 50 mm) and an AB Sciex API 5500 mass spectrometer which was operated at unit resolution in the multiple reaction monitoring (MRM) mode. The HPLC method used was a gradient method with 5 mM ammonium acetate and 0.1% acetic acid in water as the aqueous phase and a mixture of acetonitrile and methanol (1:1 vol/vol) containing 5% of the aqueous phase as the organic phase ([89]). The arylurea 10 was analyzed using a Phenomenex Gemini NX-C18 (5 μm, 2.1 mm by 50 mm) column with an AB Sciex 3200 QTRAP mass spectrometer operated at unit resolution in the MRM mode. The HPLC method used was a gradient method with 5 mM ammonium acetate and 0.1% acetic acid in water as the aqueous phase and a mixture of acetonitrile and methanol (1:1 vol/vol). The transitions of the molecular ions were monitored, as listed in Table S8 in the supporting information. The calibration range was between 0.002 μg/ml and 6.250 μg/ml. Data acquisition and evaluation were performed using Analyst 1.6.2 software (Applied Biosystems, Foster City, CA, USA). The formation of the putative metabolite DHA from the amino-artemisinins and the metabolite M1 of artemisone were evaluated in these mice PK studies; the MRM transitions of DHA and M1 (Table S8) were thus included in the LC-MS/MS assays.

A short description of series [2]: Metabolic stability in mouse liver microsomes. The format is in vitro ADME. Details: half-life / CLint scaled: dose or concentration left out as unconfirmed. Conditions: for CLint scaled: calculated, read-out: Intrinsic liver clearance rate CLint Mouse; for half-life: read-out: Microsomal half-life t1/2 Mouse. On the procedure: as §1, §2, §3

In the case of `C[C@@H]1CC[C@H]2[C@@H](C)C(=O)N[C@@H]3O[C@@]4(C)CC[C@@H]1[C@]32OO4` [11-Aza-artemisinin 11, 11-aza-artemisinin], in series [1] (human liver microsomes), the “Stability in HLM” value is recorded as “stable throughout the experiment”. The half-life at 0.4 mM in series [1] (pooled liver microsomes) turned out to be 60 min. Further, in series [2], the “Hepatic extraction ratio EH Mouse” value amounted to 0.3, the CLint scaled is 36.4 mL/min/kg and the half-life is more than 150 min.

As for `CO[C@H]1O[C@@H]2O[C@@]3(C)CC[C@H]4[C@H](C)CC[C@@H]([C@H]1C)[C@@]24OO3` [Artemether 3, artemether], the “Hepatic extraction ratio EH Human” value in series [1] (human liver microsomes) is given as 0.9. For the same compound, in series [1] (microsomes), the half-life at 0.4 mM was determined as 12.5 min. For the same compound, in series [1] (pooled liver microsomes), the CLint scaled was 172 mL/min/kg. For the same compound, in series [2], the “Hepatic extraction ratio EH Mouse” value was determined as 0.8, the CLint scaled is 393 mL/min/kg and the half-life is 17.4 min.

In the case of `C[C@H]1[C@H](N2CCSCC2)O[C@@H]2O[C@@]3(C)CC[C@H]4[C@H](C)CC[C@@H]1[C@@]24OO3` [Artemiside 5, artemiside], the “Hepatic extraction ratio EH Human” value in series [1] (human liver microsomes) was 1.0. Moreover, in series [1] (pooled liver microsomes), the CLint scaled turned out to be 451 mL/min/kg and the half-life at 0.4 mM was less than 10 min. In addition, in series [2], the “Hepatic extraction ratio EH Mouse” value is given as 0.9, the CLint scaled was 551 mL/min/kg and the half-life was determined as 12.4 min.

As for `C[C@H]1[C@H](N2CCS(=O)(=O)CC2)O[C@@H]2O[C@@]3(C)CC[C@H]4[C@H](C)CC[C@@H]1[C@@]24OO3` [Artemisone 6, artemisone], the “Hepatic extraction ratio EH Human” value in series [1] (human liver microsomes) is recorded as 0.9. In series [1] (pooled liver microsomes), this compound yielded a CLint scaled of 243 mL/min/kg and a half-life at 0.4 mM of less than 10 min. For the same compound, in series [2], the “Hepatic extraction ratio EH Mouse” value was 0.9, the CLint scaled was 805 mL/min/kg and the half-life is less than 10 min.

Regarding `C[C@H]1[C@H](N2CCN(C(=O)Nc3ccc(F)cc3)CC2)O[C@@H]2O[C@@]3(C)CC[C@H]4[C@H](C)CC[C@@H]1[C@@]24OO3` [Arylurea 10], the “Hepatic extraction ratio EH Human” value in series [1] (human liver microsomes) stood at 0.6. In series [1] (pooled liver microsomes), this compound displayed a CLint scaled of 531 mL/min/kg and a half-life at 0.4 mM of less than 10 min. Moreover, in series [2], the “Hepatic extraction ratio EH Mouse” value is 0.6, the CLint scaled is 2480 mL/min/kg and the half-life was less than 10 min.

As to `C[C@H]1[C@@H](O)O[C@@H]2O[C@@]3(C)CC[C@H]4[C@H](C)CC[C@@H]1[C@@]24OO3` [DHA 2, dihydroartemisinin], the “Hepatic extraction ratio EH Human” value in series [1] (human liver microsomes) is 0.7. For the same compound, in series [1] (pooled liver microsomes), the CLint scaled stood at 41.5 mL/min/kg and the half-life at 0.4 mM amounted to 51.7 min. Further, in series [2], the “Hepatic extraction ratio EH Mouse” value is given as 0.4, the CLint scaled was 50.2 mL/min/kg and the half-life came out at 136 min.

`C[C@H]1[C@H](N2C=CS(=O)(=O)CC2)O[C@@H]2O[C@@]3(C)CC[C@H]4[C@H](C)CC[C@@H]1[C@@]24OO3` [M1 12] displayed a half-life at 0.4 mM in series [1] (pooled liver microsomes) of more than 150 min. In series [2], the “Hepatic extraction ratio EH Mouse” value worked out at 0.3, the CLint scaled was 37.4 mL/min/kg and the half-life is more than 150 min.

With `C[C@H]1[C@H](NS(N)(=O)=O)O[C@@H]2O[C@@]3(C)CC[C@H]4[C@H](C)CC[C@@H]1[C@@]24OO3` [Sulfamide 7], the “Hepatic extraction ratio EH Human” value in series [1] (human liver microsomes) amounted to 0.2. In series [1] (pooled liver microsomes), this compound came in with a CLint scaled of 5.6 mL/min/kg and a half-life at 0.4 mM of more than 150 min. Also, in series [2], the “Hepatic extraction ratio EH Mouse” value was 0.3, the CLint scaled was 41.3 mL/min/kg and the half-life was more than 150 min.

Values taken from publication PMC8284440, “Toward New Transmission-Blocking Combination Therapies: Pharmacokinetics of 10-Amino-Artemisinins and 11-Aza-Artemisinin and Comparison with Dihydroartemisinin and Artemether” (Antimicrobial Agents and Chemotherapy, 2021).
